This is an account of results in patent US7994313B2 (priority 2005, dated 2011).

Molecules are shown by their SMILES.

Data set [1] deals with mitochondrial F1Fo-ATPase. Particulars: cited from earlier work.
Data set [2] concerns rodents. Particulars: two daily doses; cited from earlier work.
Data set [3] in a line: Simulated gastric fluid solubility at 37° C. The data set is classed as physicochemical. Particulars: versus solvated Bz-423.
Data set [4] has as its target T1, mitochondrial F0F1 ATPase (Homo sapiens, UniProt P48047). The data set is described as follows: ATP hydrolysis. Particulars: compared with solvated Bz-423 (FIG. 11). Type of data set: biochemical.
The target of data set [5] is T1, mitochondrial F0F1 ATPase. The data set is described as follows: ATP synthesis. Type of data set: biochemical. Particulars: compared with solvated Bz-423 (FIG. 12).
Data set [6] concerns cells. The data set is described as follows: Cell viability. The data set is classed as cell-based. Particulars: compared with solvated Bz-423 (FIG. 13).
A short description of data set [7]: Water solubility at 37° C. Particulars: versus solvated Bz-423.
Data set [8] has as its target peripheral benzodiazepine receptor ("PBR") (Homo sapiens, UniProt P30536). Particulars: cited from earlier work.
The test system of data set [9] is central benzodiazepine receptor. Particulars: cited from earlier work.

Sequence of peripheral benzodiazepine receptor ("PBR") (P30536 whole entry, species assumed): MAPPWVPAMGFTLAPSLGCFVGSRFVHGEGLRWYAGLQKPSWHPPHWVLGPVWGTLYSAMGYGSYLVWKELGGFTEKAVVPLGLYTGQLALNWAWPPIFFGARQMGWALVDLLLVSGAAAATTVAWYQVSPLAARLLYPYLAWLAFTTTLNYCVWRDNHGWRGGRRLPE

Turning to `CC[C@H]1/C=C/C=C/C[C@@H](C)[C@H](O)[C@@](C)(O)C(=O)[C@@H](C)[C@H](O)[C@@H](C)C(=O)[C@@H](C)[C@H](O)[C@@H](C)/C=C/C(=O)O[C@@H]2[C@H](C)[C@H](CC1)O[C@]1(CC[C@H](C)[C@H](C[C@@H](C)O)O1)[C@H]2C` [oligomycin, reference compound], the IC50 in data set [1] was 10 nM. The LD50 in [2] was 0.5 mg/kg.

As to `CN1C(=O)C(Cc2ccc3ccccc3c2)N=C(c2ccc(O)cc2)c2cc(Cl)ccc21` (stereo not shown) [anhydrous BZ-423 ball milled], the “solubility in simulated gastric fluid, comparison in words” value in [3] is “more soluble than solvated Bz-423”. The ATP hydrolysis entry in data set [4] is listed as “capable of inhibiting ATP hydrolysis”. The ATP synthesis result in data set [5] is “not inhibiting cell synthesis”. Further, the cell viability result in data set [6] is listed as “not affecting cell viability”. Also, the “water solubility, comparison in words” value in [7] was “more soluble than solvated Bz-423”.

Consider `CN1C(=O)C(Cc2ccc3ccccc3c2)N=C(c2ccc(O)cc2)c2cc(Cl)ccc21` (stereo not shown) [Bz-423], for which the Kd in data set [8] was roughly 1000 nM. For the same compound, the “binding to the central benzodiazepine receptor” value in data set [9] is “prevents binding to the central benzodiazepine receptor”. Further, the Ki in data set [1] is roughly 9 µM.
